# From patent US20170209385A1, “ETHYLCELLULOSE DISPERSION AND FILM” (Dow Global Technologies LLC, priority 2014, published 2017)
# Counter-ions that a name gives are not always drawn. Like-named read-outs stand apart in the source and are kept apart here.
# Legend:
# [1] = 25° C.; cited from earlier work
# [2] = Screening: visual/manual check whether a coalesced film formed; type: physicochemical
# [3] = unitless; cited from earlier work
# [4] = ethylcellulose dispersion plus additive, intact on and after removal from substrate
SMILES,W. Sol. solubility in water [1] [mg/mL],Film? Did the sample form a coalesced film? (yes or no) [2],"Film? Did the sample form a coalesced film? (yes or no) [2, 4]",logP logarithm of the water-octanol partition coefficient [3]
"OCCOc1ccccc1 [2-phenoxy ethanol, 2-Phenoxyethanol]",30,yes,,
CC(C)(C)CC(C)(C)c1ccc(OCCOCC[N+](C)(C)Cc2ccccc2)cc1 [benzethonium chloride],,no,,
OCc1ccccc1 [benzyl alcohol],42.9,,yes,
O=C(OCc1ccccc1)c1ccccc1 [benzyl benzoate],,,yes,3.81
CC[N+](CC)(CC(=O)Nc1c(C)cccc1C)Cc1ccccc1 [denatonium benzoate],,,no,−0.088
CCCCOC(=O)CCCCCCCCC(=O)OCCCC [dibutyl sebacate],,,yes,5.958
OCCNCCO [diethanolamine],,,no,−1.761
CCOC(=O)c1ccccc1C(=O)OCC [diethyl phthalate],,,yes,
COC(=O)c1ccccc1C(=O)OC [dimethyl phthalate],,yes,,
OCC(O)CO [glycerol],500,,no,−1.85
CCCCC/C=C\C/C=C\CCCCCCCC(=O)O [linoleic acid],,,yes,
OC[C@@H](O)[C@@H](O[C@H]1O[C@H](CO)[C@@H](O)[C@H](O)[C@H]1O)[C@H](O)[C@@H](O)CO [maltitol],,,no,
OC[C@@H](O)[C@@H](O)[C@H](O)[C@H](O)CO [mannitol],182,,no,−3.62
CCCCCCCC/C=C\CCCCCCCC(=O)O [oleic acid],,,yes,
CCCCCCCC/C=C\CCCCCCCCO [oleyl alcohol],,,yes,7.562
OCCc1ccccc1 [phenylethyl alcohol],20,,yes,
CCCOC(=O)c1cc(O)c(O)c(O)c1 [propyl gallate],,,yes,1.779
CC(O)CO (stereo not drawn) [propylene glycol],,,yes,−1.008
OC[C@@H](O)[C@@H](O)[C@H](O)[C@@H](O)CO [sorbitol],182,,no,−3.262
CCCCCCCCCCCCCCCCCC(=O)O [stearic acid],,,yes,
O=C(O)CCC(=O)O [succinic acid],,,no,−0.933
CC(=O)OCC(COC(C)=O)OC(C)=O [triacetin],1.16,,yes,0.216
CCCCOC(=O)CC(O)(CC(=O)OCCCC)C(=O)OCCCC [tributyl citrate],,,yes,4.324
CCOC(=O)CC(O)(CC(=O)OCC)C(=O)OCC [triethyl citrate],,,yes,1.267
OC[C@@H](O)[C@H](O)[C@@H](O)CO [xylitol],1500,,no,−2.65
